Where a name gives a salt, the structure may show the parent alone.
What was measured:
mice = assay: Acute toxicity; format: in vivo; details: oral, maximum dose which did not cause mortality
[1] = test system: nigrostriatal dopaminergic bundle (6-hydroxydopamine unilateral lesion); assay: Rotation behavior after unilateral injury of nigrostriatal bundle; format: in vivo, male rats; details: rats, intraperitoneal
Protocol: A. Rotation behavior after unilateral injury of nigrostriatal bundle
The unilateral lesion was effected with male rats weighing about 220 g by unilateral injection into nigrostriatal dopaminergic bundle of 8 μg of 6-hydroxydopamine in a solution of 2 μg per μl by the method of Ungerstedt [Acta. Physiol. Scand., Vol. 82 (1971), supp. 367, p. 69-93]. In the animals, the direct dopaminergic agonists such as apomorphine administered generally induces a rotating behavior in the contralateral direction to the injured side. The test compounds were administered more than 5 weeks after the lesion and the rats were placed in an automatic rotometer which determine the number of rotations effected by each animal in 2 directions.
The products of Examples 1, 2 and 3 were intraperitoneally administered and the product of Example 1 provoked 337±99 contralateral rotations at a dose of 5 mg/kg, product of Example 2 provoked 364±50 contralateral rotations at a dose of 1 mg/kg and the product of Example 3 provoked 657±205 contralateral rotations at a dose of 0.1 mg/kg.

dopaminergic receptors = biological target: T1, dopaminergic receptors (Rattus norvegicus, UniProt P61169); assay: Affinity for dopaminergic receptors (inhibition of spiroperidol 3H fixation); format: binding; details: for fixation to dopaminergic receptors (in words): results of Table I; for IC50: spiroperidol 3H, rat striated bodies, 37° C., pH 7.3, 20 minutes, read-out: 50% inhibiting concentration
T1 construct: from tissue; host or cells: rat striatum (striated bodies), crude membrane preparation
Protocol: B. Affinity for dopaminergic receptors
The striated bodies taken from the brains of 6 male rats weighing about 150 g were homogenized at one 20th (weight/volume) in 0.32 M sucrose and the homogenized mixture was centrifuged at 1000 g for 10 minutes at 0° C., the surnageant was centrifuged at 30,000 g for 15 minutes at 4° C. The culot was taken up in 25 ml of buffered Tris HCl 50 mM with a pH of 7.7 and the mixture was centrifuged at 30,000 g for 15 minutes at 4° C. The new culot was taken up in 50 ml of buffered Krebs Tris HCl with a pH of 7.3 and the suspension was preincubated at 37° C. for 10 minutes and was then incubated for 20 minutes in a water bath at 37° C. in the presence of spiroperidol 3H, alone or with an excess of haloperidol or with increasing units of the product being tested. The incubated suspensions were filtered with Whatman GF/C and the filters were washed 3 times with 5 ml of buffered Tris HCl 50 mM. The radioactivity of the filters was measured by liquid scintillation and the curve of percentage of fixation of spiroperidol 3H as a function of concentration of test product was determined.

male mice = assay: Hypobare anoxia study; format: in vivo; details: oral, 30 minutes before test, 90 mm Hg
Protocol: Groups of 10 male mice weighing about 20 to 22 g were not fed for 5 hours and were placed in a hermetically sealed enclosure with a pressure of 90 mm Hg maintained by a pump to determine the time of their survival. […] The results of Table II show the increase of survival time expressed as a percentage of control animals.

[2] = test system: ulcers in the stomachs of rats; assay: Antiulcerous activity (Shay ulcers by ligature of pylore); format: in vivo; details: oral, about 16 hours after treatment
Text: The technique used is described by Shay et al [Gastroenterology, Vol. 5 (1945), p. 43]. Ulcers were induced in the stomachs of rats by ligature of pylore. The animals were anesthesized with ether and a longitudinal incision of about 1 cm was made beneath the sternum, the glandular part of the stomach and the duodenum were taken out and a ligature was placed a few mm below the pylore. The muscular surface was left as it was and the skin was sutured by 2 clamps.
The animals received orally immediately after a dispersive or the test product in a volume of 0.5 ml/100 g and were kept without food or water until they were killed by carotidinal bleeding which was about 16 hours after treatment. Before removal of the stomach, a ligature was placed above the […]. The gastric liquid was collected to measure the pH and the stomach was then opened by a large curve, was rinsed with physiological serum and was spead out on millimetric paper for examination with a binocular lens. The gravity of the lesions was macroscopically evaluated on a scale of 0 to 4 for each stomach to determine for each group of rats the average intensity of ulcerations.

T1 sequence (P61169 whole entry): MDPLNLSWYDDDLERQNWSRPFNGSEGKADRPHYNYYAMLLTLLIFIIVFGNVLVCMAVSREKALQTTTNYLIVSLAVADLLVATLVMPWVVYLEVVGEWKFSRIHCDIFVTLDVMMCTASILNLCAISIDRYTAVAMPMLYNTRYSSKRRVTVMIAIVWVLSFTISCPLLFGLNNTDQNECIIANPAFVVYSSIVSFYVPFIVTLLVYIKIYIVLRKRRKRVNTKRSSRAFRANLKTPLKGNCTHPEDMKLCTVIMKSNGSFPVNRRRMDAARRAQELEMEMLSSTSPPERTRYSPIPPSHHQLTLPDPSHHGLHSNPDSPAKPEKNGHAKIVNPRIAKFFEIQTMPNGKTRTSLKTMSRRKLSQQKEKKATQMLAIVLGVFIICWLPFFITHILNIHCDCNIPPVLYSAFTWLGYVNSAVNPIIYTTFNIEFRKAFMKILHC

## c1cc2c3c(c[nH]c3c1)CC[C@H]1NCCO[C@H]21 (relative stereo) [Example 1, (7a R,S-trans)-4,6,7,7a,8,9,10,11a-octahydro-[1,4]-oxazino [2',3'-4,5]-cyclohept[1,2,3-c,d]-indole hydrochloride]
mice
  DL0: 200 mg/kg
[1]; 5 mg/kg
  contralateral rotations: 337±99 contralateral rotations
Dopaminergic receptors
  fixation to dopaminergic receptors (in words): do fix dopaminergic receptors
  IC50: 10000 nM
Male mice; dose 2 mg/kg
  % of increase of survival time: 14%
Male mice; dose 10 mg/kg
  % of increase of survival time: 51%
Male mice; dose 50 mg/kg
  % of increase of survival time: 145%

## CN1CCO[C@@H]2c3cccc4[nH]cc(c34)CC[C@H]21 (relative stereo) [Example 2, (7a-R,S-trans) 8-methyl-4,6,7,7a,8,9,10,11a-octahydro-[1,4]-oxazino-[2',3'-4,5]cyclohept[1,2,3-c,d]indole hydrochloride]
mice
  DL0: 100 mg/kg
[1]; 1 mg/kg
  contralateral rotations: 364±50 contralateral rotations
Dopaminergic receptors
  fixation to dopaminergic receptors (in words): do fix dopaminergic receptors
  IC50: 950 nM
Male mice; dose 5 mg/kg
  % of increase of survival time: 30%
Male mice; dose 25 mg/kg
  % of increase of survival time: 64%

## CCCN1CCO[C@@H]2c3cccc4[nH]cc(c34)CC[C@H]21 (relative stereo) [Example 3, (7a-R,S-trans)-4,6,7,7a,8,9,10,11a-octahydro-8-propyl-[1,4]-oxazino-[2',3'-4,5]cyclohept[1,2,3-c,d]indole hydrochloride]
mice
  DL0: 100 mg/kg
[1]; 0.1 mg/kg
  contralateral rotations: 657±205 contralateral rotations
Dopaminergic receptors
  fixation to dopaminergic receptors (in words): do fix dopaminergic receptors
  IC50: 270 nM
[2]; dose 5 mg/kg
  % protection against ulceration: 51%
[2]; dose 25 mg/kg
  % protection against ulceration: 73%
Male mice; dose 1 mg/kg
  % of increase of survival time: 3%
Male mice; dose 5 mg/kg
  % of increase of survival time: 102%
Male mice; dose 25 mg/kg
  % of increase of survival time: 86%

## CCCN1CCO[C@@H]2c3cccc4[nH]c(Br)c(c34)CC[C@H]21 (relative stereo) [Example 4, (7a-R,S-trans) 5-bromo-4,6,7,7a,8,9,10,11a-octahydro-8-propyl-[1,4]-oxazino-[2',3'-4,5]cyclohept[1,2,3-c,d]indole hydrochloride]
mice
  DL0: > 1000 mg/kg

## CCCN1CCO[C@@H]2c3cccc4c3c(cn4C)CC[C@H]21 (relative stereo) [Example 5, (7a-R,S-trans) 4,6,7,7a,8,9,10,11a-octahydro-4-methyl-8-propyl-[1,4]-oxazino-[2',3'-4,5]cyclohept[1,2,3-c,d]indole hydrochloride]
mice
  DL0: 200 mg/kg

Source: patent publication US4313944A, “Cycloheptindoles, compositions and use” (Roussel Uclaf, priority 1980, dated 1982)
